The CheMixHub viscosity set
± gives the uncertainty stated by the source.

Assay: xn = mol fraction of the nth substance listed

CC(C)[O-].CC(C)[O-].CC(C)[O-].CC(C)[O-].[Ti+4] + CC(C)O
viscosity (293.15 K, 101.3 kPa, x1 = 0.0502): 2.274 ± 0.14 mPa·s | viscosity (293.15 K, 101.3 kPa, x1 = 0.1236): 2.136 ± 0.13 mPa·s | viscosity (293.15 K, 101.3 kPa, x1 = 0.2408): 2.072 ± 0.12 mPa·s | viscosity (293.15 K, 101.3 kPa, x1 = 0.4582): 2.134 ± 0.13 mPa·s | viscosity (293.15 K, 101.3 kPa, x1 = 0.6555): 2.287 ± 0.14 mPa·s | viscosity (303.15 K, 101.3 kPa, x1 = 0.0502): 1.659 ± 0.1 mPa·s | viscosity (303.15 K, 101.3 kPa, x1 = 0.1236): 1.526 ± 0.092 mPa·s | viscosity (303.15 K, 101.3 kPa, x1 = 0.2408): 1.458 ± 0.088 mPa·s | viscosity (303.15 K, 101.3 kPa, x1 = 0.4582): 1.535 ± 0.093 mPa·s | viscosity (303.15 K, 101.3 kPa, x1 = 0.6555): 1.498 ± 0.091 mPa·s | viscosity (313.15 K, 101.3 kPa, x1 = 0.0502): 1.274 ± 0.077 mPa·s | viscosity (313.15 K, 101.3 kPa, x1 = 0.1236): 1.185 ± 0.072 mPa·s | viscosity (313.15 K, 101.3 kPa, x1 = 0.2408): 1.133 ± 0.068 mPa·s | viscosity (313.15 K, 101.3 kPa, x1 = 0.4582): 1.167 ± 0.07 mPa·s | viscosity (313.15 K, 101.3 kPa, x1 = 0.6555): 1.123 ± 0.068 mPa·s | viscosity (323.15 K, 101.3 kPa, x1 = 0.0502): 0.9981 ± 0.06 mPa·s | viscosity (323.15 K, 101.3 kPa, x1 = 0.1236): 0.9549 ± 0.058 mPa·s | viscosity (323.15 K, 101.3 kPa, x1 = 0.2408): 0.9172 ± 0.055 mPa·s | viscosity (323.15 K, 101.3 kPa, x1 = 0.4582): 0.9361 ± 0.057 mPa·s | viscosity (323.15 K, 101.3 kPa, x1 = 0.6555): 0.9108 ± 0.055 mPa·s

CCC(C)(O)CC + CCO
viscosity (298.15 K, 101.33 kPa, x2 = 0.1124): 3.619 ± 0.029 mPa·s | viscosity (298.15 K, 101.33 kPa, x2 = 0.2131): 3.405 ± 0.027 mPa·s | viscosity (298.15 K, 101.33 kPa, x2 = 0.299): 3.345 ± 0.027 mPa·s | viscosity (298.15 K, 101.33 kPa, x2 = 0.4102): 3.232 ± 0.026 mPa·s | viscosity (298.15 K, 101.33 kPa, x2 = 0.5116): 3.007 ± 0.024 mPa·s | viscosity (298.15 K, 101.33 kPa, x2 = 0.6138): 2.632 ± 0.021 mPa·s | viscosity (298.15 K, 101.33 kPa, x2 = 0.7104): 2.203 ± 0.017 mPa·s | viscosity (298.15 K, 101.33 kPa, x2 = 0.7975): 1.837 ± 0.015 mPa·s | viscosity (298.15 K, 101.33 kPa, x2 = 0.901): 1.405 ± 0.011 mPa·s

ClC(Cl)(Cl)Cl + c1ccncc1
viscosity (298.15 K, 101 kPa, x1 = 0.09): 0.9206 ± 0.0078 mPa·s | viscosity (298.15 K, 101 kPa, x1 = 0.1492): 0.9404 ± 0.008 mPa·s | viscosity (298.15 K, 101 kPa, x1 = 0.2381): 0.9623 ± 0.0081 mPa·s | viscosity (298.15 K, 101 kPa, x1 = 0.293): 0.9729 ± 0.0082 mPa·s | viscosity (298.15 K, 101 kPa, x1 = 0.37): 0.9819 ± 0.0083 mPa·s | viscosity (298.15 K, 101 kPa, x1 = 0.4337): 0.9847 ± 0.0083 mPa·s | viscosity (298.15 K, 101 kPa, x1 = 0.4561): 0.9841 ± 0.0083 mPa·s | viscosity (298.15 K, 101 kPa, x1 = 0.4972): 0.9842 ± 0.0083 mPa·s | viscosity (298.15 K, 101 kPa, x1 = 0.6006): 0.9751 ± 0.0082 mPa·s | viscosity (298.15 K, 101 kPa, x1 = 0.738): 0.9538 ± 0.0081 mPa·s | viscosity (298.15 K, 101 kPa, x1 = 0.7863): 0.943 ± 0.008 mPa·s | viscosity (298.15 K, 101 kPa, x1 = 0.8636): 0.9286 ± 0.0079 mPa·s | viscosity (298.15 K, 101 kPa, x1 = 0.9447): 0.912 ± 0.0077 mPa·s

ClC(Cl)(Cl)Cl + CN(C)C=O
viscosity (298 K, 101.3 kPa, x1 = 0.129): 0.879 ± 0.011 mPa·s | viscosity (298 K, 101.3 kPa, x1 = 0.2556): 0.918 ± 0.011 mPa·s | viscosity (298 K, 101.3 kPa, x1 = 0.4437): 0.958 ± 0.011 mPa·s | viscosity (298 K, 101.3 kPa, x1 = 0.595): 0.966 ± 0.011 mPa·s | viscosity (298 K, 101.3 kPa, x1 = 0.8073): 0.949 ± 0.01 mPa·s | viscosity (318 K, 101.3 kPa, x1 = 0.1208): 0.6789 ± 0.025 mPa·s | viscosity (318 K, 101.3 kPa, x1 = 0.2535): 0.7118 ± 0.026 mPa·s | viscosity (318 K, 101.3 kPa, x1 = 0.4423): 0.745 ± 0.027 mPa·s | viscosity (318 K, 101.3 kPa, x1 = 0.5937): 0.7608 ± 0.028 mPa·s | viscosity (318 K, 101.3 kPa, x1 = 0.8235): 0.7506 ± 0.027 mPa·s

CCCOC(C)=O + CCCO
viscosity (298.15 K, 101.3 kPa, x2 = 0.3042): 0.592 ± 0.016 mPa·s | viscosity (298.15 K, 101.3 kPa, x2 = 0.5372): 0.755 ± 0.02 mPa·s | viscosity (298.15 K, 101.3 kPa, x2 = 0.7245): 0.987 ± 0.026 mPa·s | viscosity (298.15 K, 101.3 kPa, x2 = 0.8572): 1.305 ± 0.035 mPa·s | viscosity (308.15 K, 101.3 kPa, x2 = 0.3042): 0.53 ± 0.014 mPa·s | viscosity (308.15 K, 101.3 kPa, x2 = 0.5372): 0.653 ± 0.017 mPa·s | viscosity (308.15 K, 101.3 kPa, x2 = 0.7245): 0.829 ± 0.022 mPa·s | viscosity (308.15 K, 101.3 kPa, x2 = 0.8572): 1.066 ± 0.028 mPa·s
